{"source": "patent US12357624B2", "about": "“Low dose pridopidine for Parkinson's Disease and other diseases associated with parkinsonism” (PRILENIA NEUROTHERAPEUTICS LTD., priority 2019, dated 2025)", "key": {"6-OHDA-lesioned mice [1]": {"tested_on": "6-OHDA-lesioned mice", "procedure": "(§1) The study was performed in male C57B16J mice weighing approx. 25 g and having an age of 8 to 9 weeks at the beginning of the experiments. A total of 65 wild-type mice and 52 S1R knockout (KO) mice were used. S1R knockout mice and wild-type littermates (both genders) were bred on a C57BL6J background. Our S1R KO line is derived from the well-characterized Sigmar1^Gt(OST422756)Lex mouse strain distributed by the Mutant Mouse Resource Regional Centre (MMRRC) The mice were housed under a 12-h light/dark cycle with free access to food and water.\n(§2) Lesions were performed according to previously described procedures [Francardo V, Bez F, Wieloch T, Nissbrandt H, Ruscher K, Cenci 33. MA. […] Brain: A Journal of Neurology. […] 6-OHDA-HCl (Sigma-Aldrich AB, Stockholm, Sweden) was freshly dissolved in 0.02% ascorbate-saline at the concentration of 3.2 mg free base per milliliter. […] The solution was injected via a glass capillary (tip diameter−50 (1 m) at the rate of 0.5 (1 L/min, and the capillary was left in place for 2 mi after each injection.\nThe first injection was given immediately upon completion of lesion surgery. […] Forelimb use asymmetry during vertical exploration provides a validated measure of forelimb akinesia in hemiparkinsonian rodents [Lundblad M, Andersson M, Winkler C, Kirik D, Wierup N, Cenci M A. Pharmacological validation of behavioural measures of akinesia and dyskinesia in a rat model of Parkinson's disease. The European Journal of Neuroscience. […] The test was executed as in [Francardo V, Bez F, Wieloch T, Nissbrandt H, Ruscher K, Cenci 33. MA. […] The number of supporting wall contacts performed independently by the paw contralateral to the lesion was expressed as a percentage of all supporting wall contacts in each session."}, "6-OHDA-lesioned mice [2]": {"tested_on": "6-OHDA-lesioned mice", "procedure": "as §1, §2\nThe first injection was given immediately upon completion of lesion surgery. […] An impaired capacity to perform adjusting steps during experimenter-imposed movements (stepping test) reflects both akinetic and postural deficits relevant to PD [Blume S R, Cass D K, Tseng K Y. Stepping test in mice: a reliable approach in determining forelimb akinesia in MPTP-induced Parkinson's Disease. Experimental Neurology. […] Experimental Neurology. […] The mouse was placed at the entrance of a custom-made plastic corridor (7 cm wide, 1 m long, flanked by 10-cm-high walls), gently lifted by the tail, and pulled backwards with a fixed speed (1 m/4 s). Each trial was video-recorded, and the footage was used to count the number of adjusting steps performed by each forelimb. Trials in which mice turned their body by 90° towards the walls of the corridor (in an attempt to escape or explore) were discarded. In each session, mice were tested until 3 valid trials per animal were obtained. Results were expressed as the percentage of steps performed by the forelimb contralateral to the lesion (left) over the total number of steps (mean of 3 trials per session).", "remark": "listed apart in the source"}, "[3]": {"tested_on": "TH-positive neurons in the substantia nigra compacta", "conditions": "35 days", "procedure": "Mice allocated to immunohistochemistry were perfusion-fixed on the day after the last rug/saline administration (interval of approx. 20 h from the last injection). Animals were deeply anesthetized with sodium pentobarbital (240 mg/kg, i.p.) and transcardially perfused with 0.9% saline solution, followed by ice-cold buffered 4% paraformaldehyde (pH 7.4). […] Coronal sections of 30 (1 m thickness were cut on a sliding microtome and stored at −20° C. in a nonfreezing solution (30% ethylene glycol and 30% glycerol in 0.1 M phosphate buffer).\nImmunohistochemistry and quantitative analyses were performed according to established protocols [Francardo V, Bez F, Wieloch T, Nissbrandt H, Ruscher K, Cenci 33. MA. Neurobiology of Disease. […] Experimental Eye Research. […] (rabbit anti-TH antiserum from Pel-Freez, Rogers, AR, 1:1000) and Cluster of Differentiation 68 (CD68) (rat anti-CD68 antiserum from AbD Serotec, Kidlington, Oxfordshire, UK; 1:1000). Quantitative analyses were performed by an experimentally blinded investigator using the following methods.\nThe number of TH-positive cell bodies in the substantia nigra compacta (SNc) was determined using unbiased stereology according to the optical fractionator method as in [West M J. Stereological methods for estimating the total number of neurons and synapses: issues of precision and bias. Trends in Neurosciences.\nAnalysis was performed using a Nikon 80i microscope with an x-y motorized stage controlled by the NewCAST software (Visiopharm). The sampling fraction was chosen so as to count at least 100 neurons per side per animal following an established protocol [Francardo V, Recchia A, Popovic N, Andersson D, Nissbrandt H, Cenci M A. Impact of the lesion procedure on the profiles of motor impairment and molecular responsiveness to L-DOPA in the 6-hydroxydopamine mouse model of Parkinson's disease. Neurobiology of Disease. […] Trends in Neurosciences."}, "eIF2α-phosphorylation": {"tested_on": "eIF2α-phosphorylation", "conditions": "tested 0.03 to 150 μM", "source_text": "The ratio of eIF2a-P to total eIF2a was quantified by immunoblot."}, "[4]": {"tested_on": "6-OHDA-lesioned S1R KO mice", "conditions": "0.3 mg/kg, 5 weeks, vs saline", "description": "The first injection was given immediately upon completion of lesion surgery. […] Full rotations (continuous turns of 360) were counted off-line by an experimentally blinded investigator. Data are expressed as the total number of net full turns ipsilateral to the lesion per test session.\nThe number of supporting wall contacts performed independently by the paw contralateral to the lesion was expressed as a percentage of all supporting wall contacts in each session. […]"}, "S1R": {"biological_target": "S1R (Mus musculus, UniProt O55242)", "sequence (O55242 whole entry)": "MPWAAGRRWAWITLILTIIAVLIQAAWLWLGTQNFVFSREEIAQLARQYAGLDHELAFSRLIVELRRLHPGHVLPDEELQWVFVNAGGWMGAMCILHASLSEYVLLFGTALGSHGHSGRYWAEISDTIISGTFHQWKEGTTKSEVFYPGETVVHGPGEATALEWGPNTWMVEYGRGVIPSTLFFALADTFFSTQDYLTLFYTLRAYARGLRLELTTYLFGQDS", "conditions": "both doses of 0.3 and 1 mg/kg; judged plausible from Ki and free brain concentration"}, "SOD1G93A motor neurons": {"tested_on": "SOD1G93A motor neurons", "conditions": "0.1 and 1 μM; cited from earlier work"}, "[5]": {"conditions": "week 1, pridopidine-treated mice (0.3 or 1.0 mg/kg)"}}, "note": "Read-outs that look alike come from different tables or passages of the source.", "data": [{"compound": "CCCN1CCC(c2cccc(S(C)(=O)=O)c2)CC1", "note": "[pridopidine, 4-[3-(methylsulfonyl)phenyl]-1-propyl-piperidine]", "values": [{"measurement": "cylinder test, contralateral forelimb use", "setting": "6-OHDA-lesioned mice [1]; 0.3 mg/kg s.c. daily", "value": "reaching levels of performance comparable with sham-control values on weeks 4 and 5"}, {"measurement": "cylinder test, contralateral forelimb use", "setting": "6-OHDA-lesioned mice [1]; 1.0 mg/kg s.c. daily", "value": "did not restore contralateral forelimb use in the cylinder test"}, {"measurement": "cylinder test, contralateral forelimb use, difference vs sham", "setting": "6-OHDA-lesioned mice [1]; 1.0 mg/kg s.c. daily, week 5", "value": "~33", "unit": "%"}, {"measurement": "cylinder test, contralateral forelimb use, difference vs sham", "setting": "6-OHDA-lesioned mice [1]; [5]", "value": "~40", "unit": "%"}, {"measurement": "stepping test performance", "setting": "6-OHDA-lesioned mice [2]; 0.3 mg/kg s.c. daily", "value": "gradual improvement, diverging significantly from the saline-treated group on weeks 4 and 5"}, {"measurement": "stepping test, improvement above the vehicle (saline)", "setting": "6-OHDA-lesioned mice [2]; 0.3 mg/kg s.c. daily, week 5", "value": "~94", "unit": "%"}, {"measurement": "stepping test performance", "setting": "6-OHDA-lesioned mice [2]; 1.0 mg/kg s.c. daily, last 2 weeks", "value": "difference from saline-treated mice did not reach significance"}, {"measurement": "stepping test, difference vs sham", "setting": "6-OHDA-lesioned mice [2]; 1.0 mg/kg s.c. daily, week 5", "value": "~49", "unit": "%"}, {"measurement": "stepping test, difference vs sham", "setting": "6-OHDA-lesioned mice [2]; [5]", "value": "~60", "unit": "%"}, {"measurement": "increase in TH-positive neurons relative to saline treatment", "setting": "[3]; 0.3 mg/kg s.c. daily", "value": "~55", "unit": "%"}, {"measurement": "number of TH-positive neurons, SNc ipsilateral to the lesion", "setting": "[3]; 0.3 mg/kg s.c. daily", "value": 3034, "unit": "cells"}, {"measurement": "number of TH-positive neurons, SNc ipsilateral to the lesion", "setting": "[3]; 1.0 mg/kg s.c. daily", "value": "~1901", "unit": "cells"}, {"measurement": "protection of dopaminergic cell bodies in SNc", "setting": "[3]; 1.0 mg/kg s.c. daily, vs saline", "value": "did not, however, confer significant protection of dopaminergic cell bodies in SNc"}, {"measurement": "effective concentrations for reduction of eIF2α-P", "setting": "eIF2α-phosphorylation", "value": "0.03 to 3", "unit": "µM"}, {"measurement": "spontaneous rotations and forelimb use asymmetry (cylinder test, stepping test)", "setting": "[4]", "value": "does not improve motor deficits"}, {"measurement": "occupancy of the S1R at Cmax", "setting": "S1R", "value": 100, "unit": "%"}, {"measurement": "BDNF axonal transport velocity", "setting": "SOD1G93A motor neurons", "value": "significantly accelerates the velocity"}]}]}
